Data from patent US20240025863A1, “SOS1 PROTEIN DEGRADERS, PHARMACEUTICAL COMPOSITIONS THEREOF, AND THEIR THERAPEUTIC APPLICATIONS” (BioTheryX, Inc., priority 2020, published 2024).

What was measured:
Format in all cases: cell-based
SW480 cells (G12V) = experiment: Cell viability assay (CellTiter-Glo), SW480 cells; conditions: Homo sapiens, 72 h; SW480 cells, 3 days incubation, CellTiter-Glo luminescence; read-out: Inhibition of Cancerous Cells IC50 SW480 (G12V)
Method: (§1) H358, H23, SW48, and AsPC-1 cells were cultured in RPMI 1640 media supplemented with 10% fetal bovine serum, streptomycin, and penicillin. Lovo and SW480 cells were cultured in DMEM media supplemented with 10% fetal bovine serum, streptomycin, and penicillin. The cell lines were plated in their respective medium supplemented with 2.5% fetal bovine serum, streptomycin, and penicillin. All cell lines were plated in white walled 96-well plates at 2,000 cells/well or 384-well plates at 500 cells/well, except Lovo, which were plated at 4,000 or 1,000 cells/well, respectively. The cells were incubated in DMSO (control) or a compound for 3 days at 37° C. under 5% CO2. A CELLTITER-GLO® reagent (100 μL) was then added to each well. After a 10 min incubation with shaking, luminescence was measured using an ENVISION® multimode plate reader.

H358 cells (G12C) = experiment: Cell viability assay (CellTiter-Glo), H358 cells; conditions: Homo sapiens, NCI-H358, 72 h; H358 cells, 3 days incubation, CellTiter-Glo luminescence; read-out: Inhibition of Cancerous Cells IC50 H358 (G12C)
Method: as §1

SW48 cells (wt) = experiment: Cell viability assay (CellTiter-Glo), SW48 cells; conditions: Homo sapiens, 72 h; SW48 cells, 3 days incubation, CellTiter-Glo luminescence; read-out: Inhibition of Cancerous Cells IC50 SW48 (wt)
Method: as §1

Lovo cells (G13D) = experiment: Cell viability assay (CellTiter-Glo), Lovo cells; conditions: Homo sapiens, 72 h; Lovo cells, 3 days incubation, CellTiter-Glo luminescence; read-out: Inhibition of Cancerous Cells IC50 Lovo (G13D)
Method: as §1

Row | SMILES | IC50 (SW480 cells (G12V)) [µM] | IC50 (H358 cells (G12C)) [µM] | IC50 (SW48 cells (wt)) [µM] | IC50 (Lovo cells (G13D)) [µM]
1 | COc1cc2c(N[C@H](C)c3cccc(Br)c3)nc(C)nc2cc1OCCCCCCCCCOc1cc(-c2scnc2C)ccc1CNC(=O)[C@@H]1C[C@@H](O)CN1C(=O)[C@@H](NC(C)=O)C(C)(C)C [Compound D12, (2S,4R)-1-((S)-2-acetamido-3,3-dimethylbutanoyl)-N-(2-((9-((4-(((R)-1-(3-bromophenyl)ethyl)amino)-6-methoxy-2-methylquinazolin-7-yl)oxy)nonyl)oxy)-4-(4-methylthiazol-5-yl)benzyl)-4-hydroxypyrrolidine-2-carboxamide] | 3.5 | 4.3 | 5.4 | 3.1
2 | COc1cc2c(N[C@H](C)c3cccc(Br)c3)nc(C)nc2cc1OCCCCCCCC(=O)NCc1ccc2c(c1)CN(C1CCC(=O)NC1=O)C2=O (stereo partly drawn) [Compound A8, 8-((4-(((R)-1-(3-Bromophenyl)ethyl)amino)-6-methoxy-2-methylquinazolin-7-yl)oxy)-N-((2-(2,6-dioxopiperidin-3-yl)-1-oxoisoindolin-5-yl)methyl)octanamide] | 2.1 | 1.6 | 0.4 | 0.97
3 | COc1cc2c(N[C@H](C)c3cccc(Br)c3)nc(C)nc2cc1OCCCCCN1CCN(C(=O)CNc2cc(F)cc3c2CN(C2CCC(=O)NC2=O)C3=O)CC1 (stereo partly drawn) [Compound A55, 3-(4-((2-(4-(5-((4-(((R)-1-(3-Bromophenyl)ethyl)amino)-6-methoxy-2-methyl-quinazolin-7-yl)oxy)pentyl)piperazin-1-yl)-2-oxoethyl)amino)-6-fluoro-1-oxoisoindolin-2-yl)piperidine-2,6-dione] | 1.8 | 2 | 1.4 | 0.64
4 | COc1cc2c(N[C@H](C)c3cccc(Br)c3)nc(C)nc2cc1OCCCCN1CCN(C(=O)COc2cc(F)cc3c2CN(C2CCC(=O)NC2=O)C3=O)CC1 (stereo partly drawn) [Compound A13, 3-(4-(2-(4-(4-((4-(((R)-1-(3-Bromophenyl)ethyl)amino)-6-methoxy-2-methyl-quinazolin-7-yl)oxy)butyl)piperazin-1-yl)-2-oxoethoxy)-6-fluoro-1-oxoisoindolin-2-yl)-piperidine-2,6-dione] | 6.6 | 7.4 | 5.9 | 9.8
5 | COc1ccc(C2=N[C@@H](c3ccc(Cl)cc3)[C@@H](c3ccc(Cl)cc3)N2C(=O)N2CCN(CC(=O)NCCCCCCCCCCOc3cc4nc(C)nc(N[C@H](C)c5cccc(Br)c5)c4cc3OC)CC2)c(OC(C)C)c1 [Compound C5, 2-(4-((4S,5R)-4,5-Bis(4-chlorophenyl)-2-(2-isopropoxy-4-methoxyphenyl)-4,5-dihydro-1H-imidazole-1-carbonyl)piperazin-1-yl)-N-(10-((4-(((R)-1-(3-bromophenyl)ethyl)-amino)-6-methoxy-2-methylquinazolin-7-yl)oxy)decyl)acetamide] | > 10 | > 10 | > 10 | > 10
6 | COc1ccc(C2=N[C@@H](c3ccc(Cl)cc3)[C@@H](c3ccc(Cl)cc3)N2C(=O)N2CCN(CC(=O)NCCCCCCCCCCCCOc3cc4nc(C)nc(N[C@H](C)c5cccc(Br)c5)c4cc3OC)CC2)c(OC(C)C)c1 [Compound C6, 2-(4-((4S,5R)-4,5-Bis(4-chlorophenyl)-2-(2-isopropoxy-4-methoxyphenyl)-4,5-dihydro-1H-imidazole-1-carbonyl)piperazin-1-yl)-N-(12-((4-(((R)-1-(3-bromophenyl)ethyl)-amino)-6-methoxy-2-methylquinazolin-7-yl)oxy)dodecyl)acetamide] | > 10 | > 10 | > 10 | > 10
7 | COc1cc2c(N[C@H](C)c3cccc(Br)c3)nc(C)nc2cc1OCCCCCCCCCCCCC(=O)N[C@H](C(=O)N1C[C@H](O)C[C@H]1C(=O)NCc1ccc(-c2scnc2C)cc1)C(C)(C)C [Compound D4, (2S,4R)-1-((S)-2-(13-((4-(((R)-1-(3-Bromophenyl)ethyl)amino)-6-methoxy-2-methylquinazolin-7-yl)oxy)tridecanamido)-3,3-dimethylbutanoyl)-4-hydroxy-N-(4-(4-methylthiazol-5-yl)benzyl)pyrrolidine-2-carboxamide] | 2.7 | > 10 | > 10 | > 10
8 | COc1cc2c(N[C@H](C)c3cccc(Br)c3)nc(C)nc2cc1OCCCCCCCCC(=O)NCc1cccc2c1CN(C1CCC(=O)NC1=O)C2=O (stereo partly drawn) [Compound A6, 9-((4-(((R)-1-(3-bromophenyl)ethyl)amino)-6-methoxy-2-methylquinazolin-7-yl)oxy)-N-((2-(2,6-dioxopiperidin-3-yl)-1-oxoisoindolin-4-yl)methyl)nonanamide] | 8.3 | 9.9 | > 10 | 4.9
9 | COc1cc2c(N[C@H](C)c3cccc(Br)c3)nc(C)nc2cc1OCCCCCN1CCN(C(=O)COc2cc(F)cc3c2CN(C2CCC(=O)NC2=O)C3=O)CC1 (stereo partly drawn) [Compound A14, 3-(4-(2-(4-(5-((4-(((R)-1-(3-Bromophenyl)ethyl)amino)-6-methoxy-2-methyl-quinazolin-7-yl)oxy)pentyl)piperazin-1-yl)-2-oxoethoxy)-6-fluoro-1-oxoisoindolin-2-yl)-piperidine-2,6-dione] | 5 | 4.5 | 3.1 | 2.8
10 | CNCc1ccccc1-c1csc([C@@H](C)Nc2nc(C)nc3cc(OCCCCCCCN4CCC(c5cc6c(cc5F)C(=O)N(C5CCC(=O)NC5=O)C6)CC4)c(OC)cc23)c1 (stereo partly drawn) [Compound A25, 3-(6-Fluoro-5-(1-(7-((6-methoxy-2-methyl-4-(((R)-1-(4-(2-((methylamino)-methyl)phenyl)thiophen-2-yl)ethyl)amino)quinazolin-7-yl)oxy)heptyl)piperidin-4-yl)-1-oxoisoindolin-2-yl)piperidine-2,6-dione] | 0.37 | 0.51 | 0.42 | 0.29
11 | CNCc1ccccc1-c1csc([C@@H](C)Nc2nc(C)nc3cc(OCCCCCCCN4CCC(c5cc(F)cc6c5CN(C5CCC(=O)NC5=O)C6=O)CC4)c(OC)cc23)c1 (stereo partly drawn) [Compound A15, 3-(6-Fluoro-4-(1-(7-((6-methoxy-2-methyl-4-(((R)-1-(4-(2-((methylamino)-methyl)phenyl)thiophen-2-yl)ethyl)amino)quinazolin-7-yl)oxy)heptyl)piperidin-4-yl)-1-oxoisoindolin-2-yl)piperidine-2,6-dione] | 0.37 | 0.55 | 0.41 | 0.26
12 | COc1ccc(C2=N[C@@H](c3ccc(Cl)cc3)[C@@H](c3ccc(Cl)cc3)N2C(=O)N2CCN(CC(=O)NCCCCCCCCOc3cc4nc(C)nc(N[C@H](C)c5cccc(Br)c5)c4cc3OC)CC2)c(OC(C)C)c1 [Compound C4, 2-(4-((4S,5R)-4,5-bis(4-chlorophenyl)-2-(2-isopropoxy-4-methoxyphenyl)-4,5-dihydro-1H-imidazole-1-carbonyl)piperazin-1-yl)-N-(8-((4-(((R)-1-(3-bromophenyl)ethyl)-amino)-6-methoxy-2-methylquinazolin-7-yl)oxy)octyl)acetamide] | > 10 | > 10 | > 10 | > 10
13 | CNCc1ccccc1-c1csc([C@H](C)Nc2nc(C)nc3cc(OCCCCCCCN4CCC(c5cc(F)cc6c5CN(C5CCC(=O)NC5=O)C6=O)CC4)c(OC)cc23)c1 (stereo partly drawn) [Compound A16, 3-(6-Fluoro-4-(1-(7-((6-methoxy-2-methyl-4-(((S)-1-(4-(2-((methylamino)-methyl)phenyl)thiophen-2-yl)ethyl)amino)quinazolin-7-yl)oxy)heptyl)piperidin-4-yl)-1-oxoisoindolin-2-yl)piperidine-2,6-dione] | 0.35 | 0.43 | 0.34 | 0.23
14 | COc1cc2c(N[C@H](C)c3cccc(Br)c3)nc(C)nc2cc1OCCCCCCCC(=O)NCc1scc2c1CN(C1CCC(=O)NC1=O)C2=O (stereo partly drawn) [Compound A38, 8-((4-(((R)-1-(3-Bromophenyl)ethyl)amino)-6-methoxy-2-methylquinazolin-7-yl)oxy)-N-((5-(2,6-dioxopiperidin-3-yl)-4-oxo-5,6-dihydro-4H-thieno[3,4-c]pyrrol-1-yl)methyl)-octanamide] | 6.4 | 6.3 | 7.9 | 6.1
15 | CNCc1ccccc1-c1csc([C@H](C)Nc2nc(C)nc3c(CCCCCCCN4CCC(c5cc(F)cc6c5CN(C5CCC(=O)NC5=O)C6=O)CC4)c(OC)c(OC)cc23)c1 (stereo partly drawn) [Compound A56, 3-(4-(1-(7-(6,7-Dimethoxy-2-methyl-4-(((S)-1-(4-(2-((methylamino)methyl)-phenyl)thiophen-2-yl)ethyl)amino)quinazolin-8-yl)heptyl)piperidin-4-yl)-6-fluoro-1-oxoisoindolin-2-yl)piperidine-2,6-dione] | 0.26 | 0.36 | 0.19 | 0.15
